According to patent US20080009448A1, “Peptide Derivative” (priority 2006, published 2008):
Where two headings read alike, the source gives them in different places.

Legend:
Format in all cases: in vivo, mouse
[1] = system: nerve damage model animal; test: Allodynia experiment, nerve damage model (partial sciatic nerve ligation), Von Frey filament method; conditions: for anti-allodynia effect in animals with ligated sciatic nerve: s.c. administration, Von Frey filament
Description: Further the anti-nociceptive activity test using a nerve damage model envisioning a neuropathic pain was performed.
Preparation of the Nerve-Damage Model was Conducted According to the model created by Seltzer (partial sciatic nerve ligation: RSL model).
Specifically the amount of 0.1 mL/10 g of Nembutal solution 7 times diluted with Ringer's solution (Fuso Pharmaceutical Kogyo) was injected into the peritoneal cavity of mouse using 26 gauge needle (Termo) to give anesthetic. The animal was lain on its stomach, its femoral skin was cut open to incise through the fascia, the part between the heads of the biceps femoris was cut and then its sciatic nerve was fixed. The ⅓ to ½ part of the […] around the sciatic nerve detached without damaging was completely ligated with a nylon suture thread No. 9 (Natsume Seisakusho) using a vascular needle 000 spring hole (Natsume Seisakusho). Further the cut skin was sutured with the silk thread No. 2 (Natsume Seisakusho) using a surgical needle 1 spring needle (Natsume Seisakusho). After the operation, the mice had been kept until the testing date under the above conditions.
The measurement of allodynia effect on the nerve-damage model animals was conducted according to the Von Frey filament method 7 days after the nerve ligation.
Then a few kinds of filaments having different strength of stimulus (Touch-test Sensory Evaluator Instruction North Coast Medical Inc.) were pushed perpendicularly on the sole of the hinder leg until the filament was bent.
Further, for comparison, the left lower leg of the animal without nerve-damage was also stimulated and the threshold values were measured. AUCs (the area surrounded with the time-reaction curve and the base line of a graph showing the relationship between the time after administration (time-course) and % MPE) were calculated from the obtained results. Antiallodynia activity obtained from the AUC divided by the measuring time was compared as strength of activity per unit of the time period.

[2] = system: inflammatory pain model; test: Rheumatoid arthritis / inflammatory pain model (CFA), Von Frey filament method; conditions: for ED50: Mus musculus, po, read-out: ED50 of the anti-nociceptive activity calculated using the unit-time AUC value
Description: Experimental animal, male ddy type mice (Nihon SLC), weighing the body weight in the range of 15 to 20 g, were used for the studies. The animals had been kept under constant conditions (room temperature 23±1° C., humidity 52±2%, 12 hours light-and-dark cycle having light time 7:00 to 19:00 and dark time 19:00 to 7:00) until used for an experiment. The animals were fed the mouse solid diet (F2, Funabashi farm. Funabashi, Japan) with unrestricted tap water intake, and kept in captivity for at least more than two days in a laboratory.
A mouse was firmly fixed without anesthesia and 25 μL of Complete Freund's Adjuvant (CFA) using a number 30 guage needle (Termo) was subcutaneously administered into the dorsum of left hind foot to provide an inflammatory pain model. The model was kept under the conditions noted above until used for the test.
Measurement of anti-nociceptive activity on the inflammatory pain model was conducted according to Von Fray filament method as well as on never damaged model 5 days after CFA administration. The drugs were orally administered.
The anti-nociceptive activity is represented as a unit AUC value (AUC/min) which is the total AUC value or AUC divided by the measurement time and compared to study. ED50 of the anti-nociceptive activity was calculated by reducing the measurement value to a percentage of the upper limit which was set as 2.0 for the unit AUC.

[3] = system: pressure stimulation; test: Tail-pressure test; conditions: either oral or subcutaneous administration (FIG. 67, 68)
Description: The maximum pressure was 100 mmHg. The mice used for the experiment reacted to the pressure range between 40 mmHg and 50 mmHg in pre-selective experiment. A few mice or a few dozen of mice under the same condition were stimulated by adding pressure and respective threshold values for the pain reaction were measured in constant intervals after administration in accordance with different drugs administered and the different dosage thereof. According to the measurement value of the pain reaction threshold value, a percent of maximum possible effect, (% of MPE) was calculated using the following formula to quantify the anti-nociceptive activity. % of MPE=[(Pt−P0)/(Pc−Po)]×100 (in the formula, Po is a pain reaction threshold value before drug administration; Pt is a pain reaction threshold value t minute after drug administration; and Pc is a maximum simulative pressure)
The mouse which reacted to 532 through 665 Pa (40-50 mmHg) was reselected for the test. In addition the maximal stimulating pressure was set as 1333 Pa (100 mmHg). Then % MPE at this point was calculated from formula (1) as well as noted above.

Molecule | anti-allodynia effect in animals with ligated sciatic nerve [1] | ED50 ([2]; CFA administered foot) [mg/kg] | ED50 ([2]; CFA non-administered foot) [mg/kg] | lasting time of anti-nociceptive activity ([2]; mice, CFA model, oral) [min] | peak of anti-nociceptive activity after administration ([2]; mice, CFA model, oral) [min] | lasting period of anti-nociceptive activity compared with morphine ([1]; nerve damage model, s.c., at dose of equal activity) | dosage providing the same AUC, as part of morphine dosage [3]
CN1CC[C@]23c4c5ccc(O)c4O[C@H]2[C@@H](O)C=C[C@H]3[C@H]1C5 [Morphine] | significantly decreased | 113 | 67.9 | 360 | 30 | – | –
Iminoethyl-[Tyr]-[D-Met(O)]-[Phe]-[N-MeβAla]-NHCH3 [SS8225-07] | decrease of anti-allodynia effect was not observed at any doses | – | – | – | – | about twice longer | one hundredth through one twentieth
